Measured values reported in US6806257B1, “Flavones as inducible nitric oxide synthase inhibitors, cyclooxygenase-2 inhibitors and potassium channel activators” (priority 1999, dated 2004).
pEC50: −log10 of the molar value. “Also recorded” adds a separate entry of the source. Read-outs that look alike come from different tables or passages of the source. Marks after values point to notes of the source that are not given here.

Key:
COX-2 [1] = test: LPS-induced COX-2 expression in RAW264.7 macrophages (western/northern blot); type: cell-based, mouse
Experimental: Cells. RAW264.7, a mouse macrophage cell line, was obtained from American Type Culture Collection. Cells were cultured in RPMI-1640 medium (available from Gibco Life Technology, in Gaithersburg, Md.) supplemented with 2 mM L-glutamine, antibiotics (100 units/ml penicillin-A and 100 units/ml streptomycin) and 10% heat-inactivated fetal bovine serum (Gibco/BRL) and maintained at 37° C in a humidified incubator containing 5% CO2.
Western blots. Total cellular extract, cytosolic fractions (for IkB) and nuclear fraction (for p65 antibody) were prepared according to Muller et al., Immunobiology, 187, 233-256, 1993 and separated on sodium dodecyl sulfatepolyacrylamide minigels (8% for iNOS or COX-2, and 10% for IkB or p65) and transferred to immobilon polyvinylidene difluoride membranes (Millipore, Bedford, Mass.). The membrane was incubated overnight at 4° C. with 1% bovine serum albumin and then incubated with anti-iNos, COX-2, α-Tubulin monoclonal antibodies (Transduction Laboratories, Lexington, Ky.), anti-IkB or anti-p65 polyclonal antibodies (Santa Cruz Biochemicals, Santa Cruz, Calif.). iNOS, IkB, p65, Cox-2, α-Tubulin were detected by NBT and BCIP staining (Sigma Chemical Co., St. Louis, Mo.).

iNOS = test: LPS-induced nitrite production and iNOS expression in Bcl-2-overexpressed RAW264.7 cells; type: cell-based, mouse; details: 20 μg/ml, LPS 100 ng/ml, Bcl-2/RAW-1 and Bcl-2/RAW-2 cells
COX-2 [2] = test: LPS-induced COX-2 mRNA in Bcl-2-overexpressed RAW264.7 cells; type: cell-based, mouse; details: 20 μg/ml, LPS 100 ng/ml
nNOS = nNOS expression in cultured primary smooth muscle cells from porcine cerebral arteries; type: cell-based; details: 30 μM and 60 μM
[3] = test system: porcine cerebral arteries; test: L-arginine-induced relaxation in LPS-incubated cerebral arteries without endothelial cells; details: LPS 10 μg/ml 20 hours, concomitant 60 μM, U-46619 tone
Experimental: (§1) In vitro tissue bath studies. The arterial segment (4 mm long) of the circle of Willis was dissected and cannulated with a stainless-steel rod (30-28 gauge) of hemispherical section, and a short piece of platinum wire, and mounted horizontally in a plastic tissue bath containing 6 ml of Krebs' bicarbonate solution. The platinum wire was bent into a U shape and anchored to a gate. The stainless-steel rod was connected to a stain gauge transducer (UC3, available from Gould) for isometric recording of changes in force. The temperature of Krebs' solution in the tissue baths, equilibrated with 95% O2 and 5% CO2, was maintained at 37° C. Tissues were equilibrated in the Krebs' solution for an initial 30 minutes and were mechanically stretched to a resting tension of 0.75 g for another 30 minutes. The segments of the circle of Willis were precontracted with 9,11-dideoxy-9α,11α-epoxymethanoprostagladin F2α(U-46619, 1 μM) to induce an active muscle tone of 0.5-0.75 g. Experimental drugs such as L-arginine and Oroxylin A of various concentrations, and TNS at 2,4,8 Hz were applied to induce relaxation. The arteries were then washed with pre-warmed Krebs' solution. […] Stimulation parameters were continuously monitored on a Tektronix oscilloscope. […] The magnitude of a vasodilator response induced by experimental drugs and TNS was expressed as a percentage of the maximum response induced by PPV. […]

[4] = test system: porcine cerebral arteries; test: Relaxation elicited by transmural nerve stimulation (TNS) in cerebral arterial segments; details: acute administration 30 μM, U-46619 tone
Experimental: as §1

[5] = test system: porcine cerebral arteries; test: In vitro tissue bath vasorelaxation of precontracted porcine cerebral arteries; details: for pEC50: Sus scrofa; for U-46619-induced active muscle tone: 0.1-30 μM
[6] = conclusion from blocker experiments

SMILES: COc1c(O)cc2oc(-c3ccccc3)cc(=O)c2c1O [oroxylin A, 5,7-dihydroxy-6-methoxy flavone]
- LPS-induced COX-2 gene expression (protein and mRNA) (COX-2 [1]): most potent among the compounds tested; also recorded: inhibited
- LPS-induced iNOS gene expression (iNOS): inhibited
- LPS-induced nitrite production (iNOS): inhibited
- LPS-induced COX-2 mRNA (COX-2 [2]): inhibited
- expression of nNOS (nNOS): did not affect
- LPS-rendered L-Arginine-induced relaxation [3]: significantly decreased
- relaxation elicited by TNS at 2, 4, and 8 Hz [4]: slightly and significantly enhanced; also recorded: increased
- transient relaxation ([5]; 60 μM, KCl (80 mM)-pre-contracted arterial rings, n=5): 20.2±1.63 % of PPV-induced maximum relaxation
- relaxation ([5]; 60 μM, same arteries contracted with U-46619, n=5): 95.1±4.31 % of PPV-induced maximum relaxation
- sustained relaxation in KCl-precontracted arteries ([5]; 80 mM KCl, 1-60 μM, with or without endothelial cells): did not induce sustained relaxation; also recorded: failed to induce sustained relaxation
- Percent of Maximum Control Relaxation ([5]; Oroxylin A 3 μM, after 4-AP (10 mM)): 1.8 ± 1.6%
- Percent of Maximum Control Relaxation ([5]; Oroxylin A 3 μM, after ETI (10 μM)): 21.4 ± 2.1%
- Percent of Maximum Control Relaxation ([5]; Oroxylin A 3 μM, after GLP (30 μM)): 24.6 ± 3.4%
- Percent of Maximum Control Relaxation ([5]; Oroxylin A 3 μM, after IBT (100 nM)): 16.8 ± 3.1%
- Percent of Maximum Control Relaxation ([5]; Oroxylin A 3 μM, after INDO (30 μM)): 23.0 ± 1.8%
- Percent of Maximum Control Relaxation ([5]; Oroxylin A 3 μM, after L-NNA (60 μM)): 26.9 ± 3.4%
- Percent of Maximum Control Relaxation ([5]; Oroxylin A 3 μM, after MCN (5 μM)): 21.2 ± 3.4%
- Percent of Maximum Control Relaxation ([5]; Oroxylin A 3 μM, after TEA (1 mM)): 7.1 ± 3.0%
- Percent of Maximum Control Relaxation ([5]; Oroxylin A 3 μM, after TEA (10 mM)): 0** Percent
- Percent of Maximum Control Relaxation ([5]; Oroxylin A 3 μM, control (no inhibitor), n=12): 24.6 ± 1.9%
- Percent of Maximum Control Relaxation ([5]; Oroxylin A 10 μM, after 4-AP (10 mM)): 9.7 ± 2.0%
- Percent of Maximum Control Relaxation ([5]; Oroxylin A 10 μM, after ETI (10 μM)): 41.3 ± 4.4%
- Percent of Maximum Control Relaxation ([5]; Oroxylin A 10 μM, after GLP (30 μM)): 46.5 ± 7.1%
- Percent of Maximum Control Relaxation ([5]; Oroxylin A 10 μM, after IBT (100 nM)): 30.8 ± 5.2%
- Percent of Maximum Control Relaxation ([5]; Oroxylin A 10 μM, after INDO (30 μM)): 41.8 ± 5.6%
- Percent of Maximum Control Relaxation ([5]; Oroxylin A 10 μM, after L-NNA (60 μM)): 45.3 ± 6.0%
- Percent of Maximum Control Relaxation ([5]; Oroxylin A 10 μM, after MCN (5 μM)): 37.4 ± 4.5%
- Percent of Maximum Control Relaxation ([5]; Oroxylin A 10 μM, after TEA (1 mM)): 31.5 ± 6.6%
- Percent of Maximum Control Relaxation ([5]; Oroxylin A 10 μM, after TEA (10 mM)): 4.87 ± 1.5%
- Percent of Maximum Control Relaxation ([5]; Oroxylin A 10 μM, control (no inhibitor), n=12): 49.0 ± 3.4%
- Percent of Maximum Control Relaxation ([5]; Oroxylin A 30 μM, after 4-AP (10 mM)): 28.4 ± 6.7%
- Percent of Maximum Control Relaxation ([5]; Oroxylin A 30 μM, after ETI (10 μM)): 91.4 ± 1.5%
- Percent of Maximum Control Relaxation ([5]; Oroxylin A 30 μM, after GLP (30 μM)): 84.2 ± 7.1%
- Percent of Maximum Control Relaxation ([5]; Oroxylin A 30 μM, after IBT (100 nM)): 68.1 ± 7.2%
- Percent of Maximum Control Relaxation ([5]; Oroxylin A 30 μM, after INDO (30 μM)): 89.1 ± 3.6%
- Percent of Maximum Control Relaxation ([5]; Oroxylin A 30 μM, after L-NNA (60 μM)): 91.9 ± 2.8%
- Percent of Maximum Control Relaxation ([5]; Oroxylin A 30 μM, after MCN (5 μM)): 87.2 ± 2.6%
- Percent of Maximum Control Relaxation ([5]; Oroxylin A 30 μM, after TEA (1 mM)): 58.6 ± 6.7%
- Percent of Maximum Control Relaxation ([5]; Oroxylin A 30 μM, after TEA (10 mM)): 16.3 ± 2.0%
- Percent of Maximum Control Relaxation ([5]; Oroxylin A 30 μM, control (no inhibitor), n=12): 86.0 ± 2.6%
- pEC50 ([5]; after ETI (10 μM), read-out: EC50): 5.09
- pEC50 ([5]; after GLP (30 μM), read-out: EC50): 4.95
- pEC50 ([5]; after IBT (100 nM), read-out: EC50): 4.82
- pEC50 ([5]; after INDO (30 μM), read-out: EC50): 5.00
- pEC50 ([5]; after L-NNA (60 μM), read-out: EC50): 4.94
- pEC50 ([5]; after MCN (5 μM), read-out: EC50): 4.98
- pEC50 ([5]; after TEA (1 mM), read-out: EC50): 4.67
- pEC50 ([5]; after TEA (10 mM), read-out: EC50): 4.41
- pEC50 ([5]; control (no inhibitor), n=12, read-out: EC50): 5.08
- pEC50 ([5]; endothelium-denuded arteries, U-46619, n=12, read-out: EC50 of relaxation): 5.08
- pEC50 ([5]; intact endothelium, pre-contracted with U-46619 (1 μM), n=4, read-out: EC50 of relaxation): 5.10
- U-46619-induced active muscle tone ([5]; U-46619 (1 μM)): concentration-dependant inhibition
- U-46619-induced active muscle tone ([5]; U-46619 (1 μM), listed as Oroxylin A): in a concentration-dependent manner decreased
- Ca2+-activated K+ channel opening [5, 6]: is a Ca^2+— activated K^+ channel opener
- KATP channel opening [5, 6]: is not a KATP channel opener
- concentration at which maximum relaxation was achieved ([5]; intact endothelium, U-46619 (1 μM)): 30 µM
